These results are taken from patent US9073858B2, “Methods of targeted drug development” (priority 2010, dated 2015).

Read-outs that look alike come from different tables or passages of the source.

Test [1] has as its system epithelial carcinoma A431 cell line. As to the kind of experiment: MTT Cell Proliferation Assay, A431 cell line. The note with it: for MTT-72 h A431/MDBK (ratio) / MTT (10 Point follow-up) ratio: value in brackets; for MTT-72 h A431/MDBK (ratio): numerically MDBK value over A431 value; for MTT (10 Point follow-up) ratio: numerically MDBK over A431. It is filed as cell-based. The essentials: (§1)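 Cells plated overnight, then exposed 3 days at 37 °C, 5% CO2 to compound in growth medium with 0.5% FBS and 0.5% DMSO final (0.5% DMSO as control).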

For a further test, the system named is MDBK line. As to the kind of experiment: MTT Cell Proliferation Assay, MDBK line. The class given is cell-based, bovine. The note with it: Bos taurus, MDBK. The method, boiled down: as §1
For another test, the target named is T1, EGFR (Homo sapiens, UniProt P00533).
T1 construct: endogenous in cells; host or cells: A431 cells (ATCC CRL-1555)
The test is described as follows: EGFR in-cell Western (ICW) screening protocol. More on the design: unit not given here. It is filed as cell-based. As to conditions: for ICW Screen: initial screen. The method, boiled down:
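Serum-starved cells treated with compound 4 h at 37 °C, then stimulated with EGF (20 or 0 ng/ml solution added) in its continued presence. In-cell Western on fixed cells: phospho-EGFR (800 channel) normalised to total EGFR (700 channel), % inhibition calculated against EGF-stimulated and unstimulated no-compound wells.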

The mark [2] stands for this setting: Homo sapiens, A-431, 72 h, 72 h, first value of A431/MDBK pair, read-out: MTT-72 h A431.
[3] abbreviates: 72 h, second value of A431/MDBK pair, read-out: MTT-72 h MDBK.
Where [4] appears, read: Homo sapiens, A-431, 10 point follow-up, first value of pair, read-out: MTT (10 Point follow-up) A431.
Where [5] appears, read: 10 point follow-up, second value of pair, read-out: MTT (10 Point follow-up) MDBK.

T1 sequence (P00533 25-1210): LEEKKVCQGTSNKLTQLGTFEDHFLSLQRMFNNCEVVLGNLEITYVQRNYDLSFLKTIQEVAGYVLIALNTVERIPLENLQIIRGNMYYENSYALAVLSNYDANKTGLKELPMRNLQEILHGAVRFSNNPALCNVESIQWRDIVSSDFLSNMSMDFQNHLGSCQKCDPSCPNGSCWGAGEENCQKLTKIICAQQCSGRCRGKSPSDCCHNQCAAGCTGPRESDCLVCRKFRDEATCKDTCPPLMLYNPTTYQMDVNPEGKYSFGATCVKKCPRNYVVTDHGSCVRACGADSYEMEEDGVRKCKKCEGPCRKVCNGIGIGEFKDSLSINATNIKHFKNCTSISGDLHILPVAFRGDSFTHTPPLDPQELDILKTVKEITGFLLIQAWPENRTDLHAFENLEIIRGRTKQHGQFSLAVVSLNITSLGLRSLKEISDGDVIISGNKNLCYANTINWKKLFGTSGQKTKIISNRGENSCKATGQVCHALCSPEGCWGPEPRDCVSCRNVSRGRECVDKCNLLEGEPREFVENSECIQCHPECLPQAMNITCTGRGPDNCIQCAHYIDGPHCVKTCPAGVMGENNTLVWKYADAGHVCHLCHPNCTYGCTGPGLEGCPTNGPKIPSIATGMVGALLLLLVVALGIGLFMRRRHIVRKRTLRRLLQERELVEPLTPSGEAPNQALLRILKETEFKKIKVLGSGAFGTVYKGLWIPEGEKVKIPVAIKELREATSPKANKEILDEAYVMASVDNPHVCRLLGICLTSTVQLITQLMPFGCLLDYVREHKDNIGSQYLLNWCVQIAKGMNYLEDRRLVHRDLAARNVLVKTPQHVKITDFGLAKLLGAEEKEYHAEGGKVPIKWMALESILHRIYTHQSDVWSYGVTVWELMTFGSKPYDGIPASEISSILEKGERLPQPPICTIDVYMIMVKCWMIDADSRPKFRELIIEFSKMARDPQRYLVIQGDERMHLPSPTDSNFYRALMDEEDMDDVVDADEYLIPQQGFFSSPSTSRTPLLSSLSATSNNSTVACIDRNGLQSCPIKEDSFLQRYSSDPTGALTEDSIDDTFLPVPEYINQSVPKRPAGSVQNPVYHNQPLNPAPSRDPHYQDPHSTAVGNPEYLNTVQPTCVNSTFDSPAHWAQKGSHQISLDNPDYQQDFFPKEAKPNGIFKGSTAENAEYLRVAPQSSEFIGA

Take `COc1ccc(NC(c2ccccn2)c2ccc3cccnc3c2O)cc1` (stereo not drawn) [compound 11103]: the “MTT-72 h A431/MDBK (ratio)” value in test [1] (72 h) was 1.75. For the same molecule, in test [1] (setting [2]), the IC50 was determined as 20.8 µM. Further, in the test with MDBK line (setting [3]), the IC50 came to 36.4 µM. Besides, at EGFR, the “ICW Screen” value was 50.55 and the “ICW Re-Test” value was 45.86.

For the molecule `O=[N+]([O-])c1cccc(NC(c2ccco2)c2ccc3cccnc3c2O)c1` (stereo not drawn) [compound 11056], in test [1] (72 h), the “MTT-72 h A431/MDBK (ratio)” value was determined as 0.94. For the same molecule, the IC50 in test [1] (setting [2]) turned out to be 6.35 µM. In addition, in the test with MDBK line (setting [3]), the IC50 was 5.94 µM. Moreover, on EGFR, the “ICW Screen” value is 32.48 and the “ICW Re-Test” value was found to be 18.32.

Consider `Oc1c(C(Nc2cccc(Cl)c2)c2ccncc2)ccc2cccnc12` (stereo not drawn) [compound 11042], for which, in test [1] (72 h), the “MTT-72 h A431/MDBK (ratio)” value stood at 1.06. Also, the IC50 in test [1] (setting [2]) was 3.93 µM. Further, the IC50 in the test with MDBK line (setting [3]) amounted to 3.72 µM. Also, at EGFR, the “ICW Screen” value stood at 53.72 and the “ICW Re-Test” value was 71.32.

Take `CCOc1ccc(NC(c2ccccn2)c2ccc3cccnc3c2O)cc1` (stereo not drawn) [compound 11000]: the IC50 in test [1] (72 h, first value of A431/MDBK pair, read-out: MTT-72 h A431) worked out at 11.4 µM; with MDBK line (setting [3]), 11.2 µM. For the same molecule, the “MTT-72 h A431/MDBK (ratio)” value in test [1] (72 h) came out at 0.99. Also, at EGFR, the “ICW Screen” value stood at 27.62.

As to `CCOc1cc(C(Nc2cccnc2)c2ccc3cccnc3c2O)ccc1O` (stereo not drawn) [compound 10936], the “MTT-72 h A431/MDBK (ratio)” value in test [1] (72 h) worked out at 1.05. For the same molecule, the IC50 in test [1] (setting [2]) turned out to be 5.43 µM. In addition, in the test on MDBK line (setting [3]), the IC50 came out at 5.68 µM. For the same molecule, on EGFR, the “ICW Screen” value is 37.96 and the “ICW Re-Test” value came out at 57.

Take `C=CCOc1ccc(C(Nc2ccccn2)c2ccc3cccnc3c2O)cc1` (stereo not drawn) [compound 10052]: the “MTT (10 Point follow-up) ratio” value in test [1] is given as 0.67. The IC50 in test [1] (setting [4]) is 13.8 µM; in test [1] (setting [2]), 2.35 µM; with MDBK line (setting [5]) it was 9.25 µM. The “ICW Screen” value at EGFR is reported as 43.1. Further, the “ICW Re-Test” value at EGFR is given as 20.95.

Turning to `COc1ccc(C(NC(=O)C2CCCCC2)c2cc([N+](=O)[O-])c3cccnc3c2O)cc1OC` (stereo not drawn) [compound 10940], the “MTT (10 Point follow-up) ratio” value in test [1] was found to be 1.77. Also, in test [1] (72 h, maximal effect printed after the ratio), the “MTT-72 h % Max” value is on record as 57%. For the same molecule, the “MTT-72 h A431/MDBK (ratio)” value in test [1] (72 h) is reported as 1.21. For the same molecule, the IC50 in test [1] (setting [4]) came out at 0.336 µM; in test [1] (setting [2]), 13.6 µM; in the test with MDBK line (setting [5]) it was 0.594 µM; in the test with MDBK line (setting [3]), 16.6 µM. Besides, the “ICW Screen” value on EGFR was found to be 38.28. For the same molecule, the “ICW Re-Test” value against EGFR was 72.45.

With `CCN(CC)c1ccc(C(Nc2ccccn2)c2ccc3cccnc3c2O)cc1` (stereo not drawn) [compound 10965], the “MTT-72 h A431/MDBK (ratio)” value in test [1] (72 h) was found to be 1.00. For the same molecule, the IC50 in test [1] (setting [2]) was 3.83 µM. For the same molecule, in the test on MDBK line (setting [3]), the IC50 came out at 3.83 µM. Further, at EGFR, the “ICW Screen” value is recorded as 74.54 and the “ICW Re-Test” value came out at 92.26.

For `Oc1c(C(Nc2ccccn2)c2ccccc2F)ccc2cccnc12` (stereo not drawn) [compound 10033], the “MTT (10 Point follow-up) ratio” value in test [1] amounted to 2.44. In addition, the “MTT-72 h A431/MDBK (ratio)” value in test [1] (72 h) is listed as 2.49. The IC50 came to 1.81 µM in test [1] (setting [4]), 1.85 µM in test [1] (setting [2]), 4.43 µM in the test on MDBK line (setting [5]) and 4.62 µM in the test on MDBK line (setting [3]). Besides, the “ICW Screen” value against EGFR is on record as 49.36. The “ICW Re-Test” value against EGFR is given as 5.98.

On to `COc1ccc(C(Nc2ccccn2)c2ccc3ccc(C)nc3c2O)cc1C` (stereo not drawn) [compound 1979], for which the “MTT-72 h A431/MDBK (ratio)” value in test [1] (72 h) was 0.95. Also, the IC50 in test [1] (setting [2]) was found to be 5.69 µM; in the test with MDBK line (setting [3]), 5.38 µM. For the same molecule, at EGFR, the “ICW Screen” value is 27.02.

Consider `CCOc1ccc(C(Nc2cc(C)ccn2)c2ccc3cccnc3c2O)cc1OC` (stereo not drawn) [compound 10017], for which, in test [1], the “MTT (10 Point follow-up) ratio” value is 0.85. Also, the “MTT-72 h A431/MDBK (ratio)” value in test [1] (72 h) turned out to be 0.94. For the same molecule, the IC50 in test [1] (setting [4]) stood at 3.52 µM; in test [1] (setting [2]) it was 3.72 µM; with MDBK line (setting [5]) it was 2.98 µM; with MDBK line (setting [3]), 3.51 µM. Moreover, the “ICW Screen” value against EGFR stood at 44.27. Also, the “ICW Re-Test” value against EGFR is 30.11.

For `Cc1cccc(NC(c2ccncc2)c2ccc3cccnc3c2O)n1` (stereo not drawn) [compound 10974], the “MTT-72 h A431/MDBK (ratio)” value in test [1] (72 h) amounted to 1.14. Also, in test [1] (setting [2]), the IC50 worked out at 4.19 µM. For the same molecule, the IC50 with MDBK line (setting [3]) was determined as 4.77 µM. In addition, at EGFR, the “ICW Screen” value is listed as 50.44 and the “ICW Re-Test” value worked out at 44.13.
